Source: US20020035061A1, “COMPOSITIONS AND METHODS FOR TREATING INFECTIONS USING CATIONIC PEPTIDES ALONE OR IN COMBINATION WITH ANTIBIOTICS” (priority 1996, published 2002)

Columns and labels:
[1] = test system: DoHH-2, B-cell cell lymphoma; assay: Cell death by Cytotox (Promega) lactate dehydrogenase release; assay type: cell-based; conditions: LDH release
Procedure: (§1) In addition, APO-peptides and parent peptides are tested against a panel of cancer cell lines. Cell death is measured using the Cytotox (Promega) assay kit which measures the release of lactate dehydrogenase.
(§2) PBL, peripheral blood lymphocytes; HUVEC, human umbilical vein endothelial cells; H460,non-small lung tumor; K562, chronic myelogenous leukemia; DoHH-2, B-cell cell lymphoma; P388, lymphocytic leukemia; P388ADR, lymphocytic leukemia, multidrug resistant; MCF-7, breast carcinoma; MCF-7ADR, breast carcinoma, multidrug resistant.

[2] = test system: MCF-7, breast carcinoma; assay: as above; assay type: cell-based; conditions: LDH release
Procedure: as §1, §2

[3] = test system: H460, non-small lung tumor; assay: as above; assay type: cell-based; conditions: LDH release
Procedure: as §1, §2

[4] = test system: PBL, peripheral blood lymphocytes; assay: as above; assay type: cell-based; conditions: LDH release
Procedure: as §1, §2

[5] = test system: K562, chronic myelogenous leukemia; assay: as above; assay type: cell-based; conditions: LDH release
Procedure: as §1, §2

[6] = test system: P388, lymphocytic leukemia; assay: as above; assay type: cell-based; conditions: LDH release
Procedure: as §1, §2

[7] = test system: HUVEC, human umbilical vein endothelial cells; assay: as above; assay type: cell-based; conditions: LDH release
Procedure: as §1, §2

[8] = test system: Candida; assay: Agarose dilution assay (MIC) against Candida; assay type: cell-based
[9] = test system: P. mirabilis; assay: Agarose dilution assay (MIC); assay type: cell-based
[10] = test system: S. pyogenes; assay: Agarose dilution assay (MIC); assay type: cell-based; conditions: S. pyogenes strain SPY006
[11] = test system: various bacterial strains; assay: Broth dilution assay (MIC); assay type: cell-based
Procedure: Typically 100 μl of calcium and magnesium supplemented Mueller Hinton broth is dispensed into each well of a 96-well microtitre plate and 100 μl volumes of two-fold serial dilutions of the peptide are prepared across the plate. One row of wells receives no peptide and is used as a growth control. Each well is inoculated with approximately 5×10^5 CFU of bacteria and the plate is incubated at 35-37° C. for 16-20 hours.
For example, MIC values in μg/ml are established by broth dilution assay (Table 13) or by agarose dilution assay (Table 14) for a series of cationic peptides against various bacterial strains.

[12] = test system: P388ADR, lymphocytic leukemia, multidrug resistant; assay: Cell death by Cytotox (Promega) lactate dehydrogenase release; assay type: cell-based; conditions: LDH release
Procedure: as §1, §2

[13] = Liposome dye release; conditions: egg PC liposomes
Procedure: In this example, a dye pair consisting of the fluorescent molecule 8-aminonapthalene-1,3,6-trisulfonic acid (ANTS) and its quencher molecule p-xylene-bis-pyridinium bromide (DPX) are used. The mixture of free dye molecules, dye free liposomes, and liposomes containing encapsulated ANTS-DPX are separated by size exclusion chromatography. In the assay, the test peptide is incubated with the ANTS-DPX containing liposomes and the fluorescence due to ANTS release to the outside of the liposome is measured over time.
Using this assay, peptide activity, measured by dye release, is shown to be extremely sensitive to the composition of the liposomes at many liposome to peptide ratios (L/P) (FIG. 7). […] This […] selectivity may mimic that observed […] for bacterial cells in the presence of mammalian cells.
ANTS/DPX can be replaced with fluorescein isothiocyanate-labeled dextran (FD-4), molecular weight 4,400, in the egg PC liposomes.

[14] = test system: S. epidermidis (ATCC # 12228); assay: In vivo efficacy, S. epidermidis infection; conditions: iv

ILRWPWWPWRRK [MBI 11B7CN]
LC50 ± S.E., DoHH-2 [1]: 16.5 ± 3 µg/mL
LC50 ± S.E., MCF-7 [2]: >700 µg/mL
LC50 ± S.E., H460 [3]: 26 ± 25 µg/mL
LC50 ± S.E., PBL [4]: 24 ± 10 µg/mL
LC50 ± S.E., K562 [5]: 34 ± 25 µg/mL
LC50 ± S.E., P388 [6]: 13.8 µg/mL
LC50 ± S.E., HUVEC [7]: 90 ± 23 µg/mL
MIC ([8]; C. albicans CA001): 64 µg/mL
MIC ([8]; C. albicans CA002): 32 µg/mL
MIC ([8]; C. albicans CA003): 64 µg/mL
MIC ([8]; C. albicans CA004): 32 µg/mL
MIC ([8]; C. albicans CA005): 32 µg/mL
MIC ([8]; C. albicans CA006): 64 µg/mL
MIC ([8]; C. albicans CA007): 64 µg/mL
MIC ([8]; C. albicans CA008): 32 µg/mL
MIC ([8]; C. albicans CA009): 32 µg/mL
MIC ([8]; C. albicans CA010): 64 µg/mL
MIC ([8]; C. albicans CA011): 64 µg/mL
MIC ([8]; C. albicans CA012): 64 µg/mL
MIC ([8]; C. albicans CA013): 64 µg/mL
MIC ([8]; C. albicans CA014): 32 µg/mL
MIC ([8]; C. albicans CA015): 64 µg/mL
MIC ([8]; C. albicans CA016): 64 µg/mL
MIC ([8]; C. albicans CA017): 64 µg/mL
MIC ([8]; C. albicans CA018): 64 µg/mL
MIC ([8]; C. albicans CA019): 64 µg/mL
MIC ([8]; C. albicans CA020): 32 µg/mL
MIC ([8]; C. albicans CA021): 32 µg/mL
MIC ([8]; C. albicans CA022): 32 µg/mL
MIC ([8]; C. albicans CA023): 64 µg/mL
MIC ([8]; C. albicans CA024): 8 µg/mL
MIC ([8]; C. glabrata CGL001): 128 µg/mL
MIC ([8]; C. glabrata CGL002): 128 µg/mL
MIC ([8]; C. glabrata CGL003): 128 µg/mL
MIC ([8]; C. glabrata CGL004): 128 µg/mL
MIC ([8]; C. glabrata CGL005): 128 µg/mL
MIC ([8]; C. glabrata CGL009): 128 µg/mL
MIC ([8]; C. glabrata CGL010): 128 µg/mL
MIC ([8]; C. krusei CKR001): 1 µg/mL
MIC ([8]; C. tropicalis CTR001): 4 µg/mL
MIC ([8]; C. tropicalis CTR002): 8 µg/mL
MIC ([8]; C. tropicalis CTR003): 8 µg/mL
MIC ([8]; C. tropicalis CTR004): 8 µg/mL
MIC ([8]; C. tropicalis CTR005): 4 µg/mL
MIC ([8]; C. tropicalis CTR006): 8 µg/mL
MIC ([8]; C. tropicalis CTR007): 8 µg/mL
MIC ([8]; C. tropicalis CTR008): 4 µg/mL
MIC ([8]; C. tropicalis CTR009): 4 µg/mL
MIC ([9]; P. mirabilis strain PM002): >128 µg/mL
MIC [10]: 16 µg/mL

ILKKWPWWPWRRK [MBI 11CN]
MIC ([11]; A. calcoaceticus 8191): 256 µg/mL
MIC ([11]; E. cloacae 13047): >128 µg/mL
MIC ([11]; E. coli 25922): 128 µg/mL
MIC ([11]; E. coli DH1): 64 µg/mL
MIC ([11]; E. coli ECO003): 64 µg/mL
MIC ([11]; E. coli KL4): 64 µg/mL
MIC ([11]; E. faecalis 29212): 64 µg/mL
MIC ([11]; K. pneumoniae 13883): >128 µg/mL
MIC ([11]; K. pneumoniae B44): 64 µg/mL
MIC ([11]; P. aeruginosa 27853): >128 µg/mL
MIC ([11]; P. aeruginosa 8509041): 256 µg/mL
MIC ([11]; P. aeruginosa 9308077): 128 µg/mL
MIC ([11]; P. aeruginosa 9503024): >256 µg/mL
MIC ([11]; P. aeruginosa H650): 256 µg/mL
MIC ([11]; P. aeruginosa H652): 256 µg/mL
MIC ([11]; S. aureus 25923): 32 µg/mL
MIC ([11]; S. aureus 27217): 64 µg/mL
MIC ([11]; S. aureus 29213): 32 µg/mL
MIC ([11]; S. aureus 33593): 64 µg/mL
MIC ([11]; S. aureus 8402093): 32 µg/mL
MIC ([11]; S. aureus 8809014): 32 µg/mL
MIC ([11]; S. aureus 8809025): 64 µg/mL
MIC ([11]; S. epidermidis 14990): 8 µg/mL
MIC ([11]; S. maltophilia 13637): 128 µg/mL
MIC ([11]; S. maltophilia H361): 64 µg/mL
MIC ([11]; S. marcescens 13880): >128 µg/mL
MIC ([11]; S. marcescens B21): >256 µg/mL
LC50 ± S.E., P388 ADR [12]: 25 µg/mL
LC50 ± S.E., MCF-7 [2]: 11.8 ± 9 µg/mL
LC50 ± S.E., H460 [3]: 200 µg/mL
LC50 ± S.E., PBL [4]: 57 µg/mL
LC50 ± S.E., P388 [6]: 30 µg/mL
LC50 ± S.E., HUVEC [7]: >190 µg/mL
MIC ([8]; C. albicans CA001): 128 µg/mL
MIC ([8]; C. albicans CA002): 64 µg/mL
MIC ([8]; C. albicans CA003): 128 µg/mL
MIC ([8]; C. albicans CA004): 64 µg/mL
MIC ([8]; C. albicans CA005): 128 µg/mL
MIC ([8]; C. albicans CA006): 128 µg/mL
MIC ([8]; C. albicans CA007): 128 µg/mL
MIC ([8]; C. albicans CA008): 64 µg/mL
MIC ([8]; C. albicans CA009): 64 µg/mL
MIC ([8]; C. albicans CA010): 128 µg/mL
MIC ([8]; C. albicans CA011): 64 µg/mL
MIC ([8]; C. albicans CA012): 128 µg/mL
MIC ([8]; C. albicans CA013): 128 µg/mL
MIC ([8]; C. albicans CA014): 64 µg/mL
MIC ([8]; C. albicans CA015): 128 µg/mL
MIC ([8]; C. albicans CA016): 128 µg/mL
MIC ([8]; C. albicans CA017): 128 µg/mL
MIC ([8]; C. albicans CA018): 128 µg/mL
MIC ([8]; C. albicans CA019): 128 µg/mL
MIC ([8]; C. albicans CA020): 128 µg/mL
MIC ([8]; C. albicans CA021): 128 µg/mL
MIC ([8]; C. albicans CA022): 32 µg/mL
MIC ([8]; C. albicans CA023): 128 µg/mL
MIC ([8]; C. albicans CA024): 16 µg/mL
MIC ([8]; C. glabrata CGL001): >128 µg/mL
MIC ([8]; C. glabrata CGL002): >128 µg/mL
MIC ([8]; C. glabrata CGL003): >128 µg/mL
MIC ([8]; C. glabrata CGL004): >128 µg/mL
MIC ([8]; C. glabrata CGL005): >128 µg/mL
MIC ([8]; C. glabrata CGL009): >128 µg/mL
MIC ([8]; C. glabrata CGL010): >128 µg/mL
MIC ([8]; C. krusei CKR001): 0.5 µg/mL
MIC ([8]; C. tropicalis CTR001): 4 µg/mL
MIC ([8]; C. tropicalis CTR002): 4 µg/mL
MIC ([8]; C. tropicalis CTR003): 8 µg/mL
MIC ([8]; C. tropicalis CTR004): 4 µg/mL
MIC ([8]; C. tropicalis CTR005): 4 µg/mL
MIC ([8]; C. tropicalis CTR006): 16 µg/mL
MIC ([8]; C. tropicalis CTR007): 16 µg/mL
MIC ([8]; C. tropicalis CTR008): 8 µg/mL
MIC ([8]; C. tropicalis CTR009): 8 µg/mL
MIC ([9]; P. mirabilis PM002): >128 µg/mL
FD-4 (MW 4,400) release [13]: No increase in FD-4 fluorescence
efficacy ([14]; 30 minutes post-infection): less activity
efficacy ([14]; 60 minutes post-infection): no significant effect
survival of the mice ([14]; formulation D): prolongs the survival of the mice
efficacy ([14]; treatment 15 minutes post-infection): Efficacy is observed at all three dose levels
